Measurements: PMC4928627 (Journal of Natural Products, 2016)

Columns and labels:
human cancer cell lines = conditions: growth inhibition; cited from earlier work
[1] = test system: CHIKV Indian Ocean strain 899; test: CHIKV CPE reduction assay; type: cell-based, chikungunya virus (CHIKV); conditions: BGM cells, 0.001 MOI CHIKV 899, day 5 p.i.
BGM cells = test: Cytotoxic/cytostatic effect in uninfected cells; type: cell-based, buffalo green monkey; conditions: compound alone

SMILES: CCCCCCCC(=O)O[C@H]1/C(=C/C(=O)OC)C[C@H]2C[C@H](CO)OC(=O)C[C@H](O)C[C@@H]3CCC[C@H](C[C@@H]4CCO[C@H](/C=C/C(C)(C)[C@]1(O)O2)O4)O3 [compound 3]
- effectiveness of the analogue relative to the natural product (bryostatin) (human cancer cell lines): 2–3 orders of magnitude

SMILES: C=C1C[C@H]2C[C@]3(O)O[C@H](C[C@@H](O)CC(=O)O[C@@H](CO)C[C@@H]4C/C(=C\C(=O)OC)[C@H](OC(=O)CCCCCCC)[C@@](O)(O4)C(C)(C)/C=C/[C@@H](C1)O2)C[C@H](O)C3(C)C [compound 18]
- EC50 (concentration of compound that reduces the CHIKV-induced cytopathic effect by 50%) [1]: toxicity before any observable cell-protective effect

SMILES: C=C1C[C@H]2C[C@]3(O)O[C@H](C[C@@H](O)CC(=O)O[C@@H](CO)C[C@@H]4C/C(=C\C(=O)OC)[C@H](OC(=O)CCCCCCC)[C@@](O)(O4)C(C)(C)/C=C/[C@@H](C1)O2)C[C@H](OC(C)=O)C3(C)C [compound 19]
- EC50 (concentration of compound that reduces the CHIKV-induced cytopathic effect by 50%) [1]: toxicity before any observable cell-protective effect

SMILES: CCC/C=C/C=C/C(=O)O[C@H]1/C(=C/C(=O)OC)C[C@H]2C[C@H]([C@@H](C)O)OC(=O)C[C@H](O)C[C@@H]3C[C@H](OC(C)=O)C(C)(C)[C@](O)(C[C@@H]4C/C(=C/C(=O)OC)C[C@H](/C=C/C(C)(C)[C@]1(O)O2)O4)O3 [compound 1, Bryostatin 1, reference compound]
- EC50 (concentration of compound that reduces the CHIKV-induced cytopathic effect by 50%) ([1]; listed as bryostatin): ineffective
- EC50 (concentration of compound that reduces the CHIKV-induced cytopathic effect by 50%) ([1]; listed as bryostatin 1): inactive

SMILES: CCCCCCCC(=O)O[C@H]1/C(=C/C(=O)OC)C[C@H]2C[C@H](CO)OC(=O)C[C@H](O)C[C@@H]3C[C@H](OC(C)=O)C(C)(C)[C@H](C[C@@H]4CCO[C@H](/C=C/C(C)(C)[C@]1(O)O2)O4)O3 [compound 10]
- EC50 (concentration of compound that reduces the CHIKV-induced cytopathic effect by 50%) [1]: potent
- CC50 (concentration at which cell viability is 50% relative to untreated cells) (BGM cells): nontoxic
